Data taken from patent US4276890A, “Tobacco smoking inhibitor” (priority 1979, dated 1981).
Where “and” joins values, the source holds several entries; their conditions need not be identical. Equal entries are not always repeated.

Legend:
smoking habit of smokers = experiment: Single dose response in smokers (Example 3); type: in vivo, human (volunteer smokers)
Description: The effect of a single dose of ethyl maltol in the range from 100 mg to 1,200 mg was tested on thirty volunteer subjects who were smokers. As a control, an additional ten smokers were given an inert placebo, a similar candy or gum laced with ascorbic acid and citric acid to impart a medicinal flavor. […] The threshold of effectiveness varied with the individual's age, sex, weight, smoking history, and habits. […] These studies established the existence of a critical threshold dose level below which the effectiveness of ethyl maltol as a tobacco smoking inhibitor was not observed. In subsequent tests where the gamma pyrone was administered in a dose series extending over several days, daily doses of less than about 300 mg per day were similarly ineffective.

smoking level of smokers = experiment: Daily rates of smoking reduction (Example 5, Table II; comparison with placebo groups of Example 6); type: in vivo, human (volunteer smokers); details: for reduction in smoking level: 1,000 mg/day, eight slowly dissolving lozenges, individual subjects
Description: Subjects who participated had prior knowledge of the purported effect of the treatment. They were asked to test a new dosage form and told that a "cure" was not necessarily to be expected in this test. The dosage was 1,000 mg/day of ethyl maltol divided over eight pieces of slowly dissolving lozenges, made essentially as described supra. Subjects administered their own dosage without supervision. The tests were designed and supervised by the inventor but carried out by intermediaries, in order to maximize the opportunity for objective evaluation of symptoms, and to minimize any possibility of investigative bias influencing the results. (True double blind tests are impossible because the gamma pyrone flavor is distinctive and virtually impossible to mask). Subjects were all in generally good health, and were selected to represent a variety of ages, occupational stresses, and personal life styles.
Levels of tobacco consumption were calculated taking into account the number of cigarettes smoked and the proportions smoked. They are expressed as percent reduction from the pretest smoking level.
During the same time period that the studies in Example Five were conducted, two groups of smokers were administered a placebo dosage comprising the same basic candy lozenge, but lacking any gamma pyrone and containing ascorbic and citric acids to impart a sharp, medicinal flavor.
This conclusion is further substantiated by analysis of variance. For such analysis, individual tests that were either incomplete or which presented unusual circumstances were discarded. Results from placebo groups one and two were pooled. The average percent reduction in smoking is plotted in FIG. 1, for the treatment and the placebo groups.

non-smoker volunteers = experiment: Non-smoker control volunteers on same regimen; type: in vivo, human (non-smokers); details: five non-smokers; in excess of 500 mg per day for several days
Description: As a control, five non-smoker volunteers were tested according to the same regimen, receiving varying quantities of ethyl maltol in excess of 500 mg. per day for periods of several days.

[1] = Dissolution in the mouth of gamma pyrone particles dispersed in chewing gum; type: physicochemical; details: particles 300 to 400 mesh
Description: The formation of a chewing gum for administering a gamma pyrone according to the invention is next described. Crystaline ethyl maltol was ground and sieved to 300 mesh. The ground particles acquired a static charge, tending to float upwards. In practice, it was possible to sieve the particles upwards, collecting only those which passed through the 300 mesh screen.
The ground particles were mixed at 45° C. with a plastic chewing gum base, until evenly distributed throughout the mass. The chewing gum base was selected to be free of amino acids, tannins and other flavoring elements capable of combining with gamma pyrone to yield bitter off flavors. The rate of release of gamma pyrone into the oral cavity is a function of the rate of solution of the gamma pyrone as the gum is chewed. The rate of solution is controlled by the size of the gamma pyrone particles dispersed in the gum. Optimally, for ethyl maltol, particles in the size range from 300 to 400 mesh when dispersed in such a matrix, are dissolved in the mouth in about 30 minutes. The gamma pyrone must be dispersed throughout the gum in particulate form to provide the desired sustained release effect, particles […] than 300-400 mesh dissolved more slowly, so that the incremental dose was delivered more slowly. […] particles dissolved more rapidly than desired so that the dose was delivered in an undesirably short time. […]

[2] = test system: spontaneous motor activity; details: mice; relative to maltol; cited from earlier work
[3] = test system: convulsions produced by pentylenetetrazole or strychnine; details: 300 to 500 mg per kg; cited from earlier work
[4] = per day; cited from earlier work
[5] = cited from earlier work

## CCc1occc(=O)c1O [ethyl maltol, 3-hydroxy-2-ethyl-4-pyrone]
Smoking habit of smokers; chewing gum over ten to fifteen minutes versus tablet
  threshold dose, chewing gum versus tablet: somewhat lower
Smoking habit of smokers; single dose greater than 300 mg
  reaction to cigarettes: immediate overt negative reaction to cigarettes
Smoking habit of smokers; single dose greater than 500 mg
  duration of substantially reduced level of smoking: a few hours to two days
Smoking habit of smokers; single dose greater than 500 mg, substantially all individuals
  desire to smoke cigarettes: a definitive result of reduced desire to smoke cigarettes
Smoking habit of smokers; single dose greater than 1,200 mg
  effect of dose greater than 1,200 mg: no addition advantage
Smoking habit of smokers; single dose of less than 300 mg
  effect on smoking: no definitive effect
Smoking habit of smokers; single dose up to about 1,200 mg
  effect of increasing dose: Increased effectiveness
Smoking habit of smokers; single dose, some subjects
  physiological symptoms of nicotine withdrawal: For some subjects, physiological symptoms of nicotine withdrawal were noted
Smoking level of smokers; Day 1
  reduction in smoking level: 10%
Smoking level of smokers; Day 2
  reduction in smoking level: 5% and 15% and 10% and 30% and 20%
Smoking level of smokers; Day 3
  reduction in smoking level: 10% and 20% and 5% and 40% and 60% and 30% and 15% and 45%
Smoking level of smokers; Day 4
  reduction in smoking level: 40% and 50% and 10% and 65% and 5% and 75% and 70% and 30%
Smoking level of smokers; Day 5
  reduction in smoking level: 30% and 80% and 10% and 85% and 60% and 90% and 50% and 35% and 95%
Smoking level of smokers; Day 6
  reduction in smoking level: 60% and 95% and 20% and 15% and 50% and 70% and 25%
Smoking level of smokers; Day 7
  reduction in smoking level: 50% and 40% and 20% and 90% and 65% and 85% and 30% and 45%
Smoking level of smokers; Day 8
  reduction in smoking level: 70% and 55% and 40% and 75% and 15% and 90% and 50%
Smoking level of smokers; Day 9
  reduction in smoking level: 80% and 70% and 20% and 65% and 95% and 90%
Smoking level of smokers; Day 10
  reduction in smoking level: 85% and 90% and 30% and 70% and 80%
Smoking level of smokers; subject 10, after day 5, "beer tasted funny"
  discontinuation: Discontinued
non-smoker volunteers
  psychological or physiological effects: no psychological or physiological effects
[1]
  dissolution time in the mouth from gum: about 30 minutes
[2]
  spontaneous motor activity (in words): also inhibitory, but somewhat less potent
[3]
  convulsions produced by pentylenetetrazole or strychnine: inhibited convulsions
[4]
  safe average daily intake: 2 mg per kg
[5]; after oral administration
  absorption: rapidly absorbed
  excretion: rapidly excreted
  form of excretion: primarily as glucuronide and ethereal sulfate conjugates
[5]; in vivo
  metabolism and excretion: rapidly metabolized and excreted
